Measurements reported in patent publication US20240343699A1, “DERIVATIVES OF SUBSTITUTED MORPHOLINES AND USES THEREOF” (Supernus Pharmaceuticals, Inc., priority 2023, published 2024).
Where “and” joins values, the source holds several entries; their conditions need not be identical. Equal entries are not always repeated. Where two headings read alike, the source gives them in different places.

Columns and labels:
[1] = target: T1, hNav1.5 (Homo sapiens, UniProt Q14524); experiment: Nav1.5 human sodium ion channel cell based automated patch clamp assay (QPatch HT); details: Antagonist
T1 construct: CYL6004QP2DR
T1 sequence (Q14524 whole entry): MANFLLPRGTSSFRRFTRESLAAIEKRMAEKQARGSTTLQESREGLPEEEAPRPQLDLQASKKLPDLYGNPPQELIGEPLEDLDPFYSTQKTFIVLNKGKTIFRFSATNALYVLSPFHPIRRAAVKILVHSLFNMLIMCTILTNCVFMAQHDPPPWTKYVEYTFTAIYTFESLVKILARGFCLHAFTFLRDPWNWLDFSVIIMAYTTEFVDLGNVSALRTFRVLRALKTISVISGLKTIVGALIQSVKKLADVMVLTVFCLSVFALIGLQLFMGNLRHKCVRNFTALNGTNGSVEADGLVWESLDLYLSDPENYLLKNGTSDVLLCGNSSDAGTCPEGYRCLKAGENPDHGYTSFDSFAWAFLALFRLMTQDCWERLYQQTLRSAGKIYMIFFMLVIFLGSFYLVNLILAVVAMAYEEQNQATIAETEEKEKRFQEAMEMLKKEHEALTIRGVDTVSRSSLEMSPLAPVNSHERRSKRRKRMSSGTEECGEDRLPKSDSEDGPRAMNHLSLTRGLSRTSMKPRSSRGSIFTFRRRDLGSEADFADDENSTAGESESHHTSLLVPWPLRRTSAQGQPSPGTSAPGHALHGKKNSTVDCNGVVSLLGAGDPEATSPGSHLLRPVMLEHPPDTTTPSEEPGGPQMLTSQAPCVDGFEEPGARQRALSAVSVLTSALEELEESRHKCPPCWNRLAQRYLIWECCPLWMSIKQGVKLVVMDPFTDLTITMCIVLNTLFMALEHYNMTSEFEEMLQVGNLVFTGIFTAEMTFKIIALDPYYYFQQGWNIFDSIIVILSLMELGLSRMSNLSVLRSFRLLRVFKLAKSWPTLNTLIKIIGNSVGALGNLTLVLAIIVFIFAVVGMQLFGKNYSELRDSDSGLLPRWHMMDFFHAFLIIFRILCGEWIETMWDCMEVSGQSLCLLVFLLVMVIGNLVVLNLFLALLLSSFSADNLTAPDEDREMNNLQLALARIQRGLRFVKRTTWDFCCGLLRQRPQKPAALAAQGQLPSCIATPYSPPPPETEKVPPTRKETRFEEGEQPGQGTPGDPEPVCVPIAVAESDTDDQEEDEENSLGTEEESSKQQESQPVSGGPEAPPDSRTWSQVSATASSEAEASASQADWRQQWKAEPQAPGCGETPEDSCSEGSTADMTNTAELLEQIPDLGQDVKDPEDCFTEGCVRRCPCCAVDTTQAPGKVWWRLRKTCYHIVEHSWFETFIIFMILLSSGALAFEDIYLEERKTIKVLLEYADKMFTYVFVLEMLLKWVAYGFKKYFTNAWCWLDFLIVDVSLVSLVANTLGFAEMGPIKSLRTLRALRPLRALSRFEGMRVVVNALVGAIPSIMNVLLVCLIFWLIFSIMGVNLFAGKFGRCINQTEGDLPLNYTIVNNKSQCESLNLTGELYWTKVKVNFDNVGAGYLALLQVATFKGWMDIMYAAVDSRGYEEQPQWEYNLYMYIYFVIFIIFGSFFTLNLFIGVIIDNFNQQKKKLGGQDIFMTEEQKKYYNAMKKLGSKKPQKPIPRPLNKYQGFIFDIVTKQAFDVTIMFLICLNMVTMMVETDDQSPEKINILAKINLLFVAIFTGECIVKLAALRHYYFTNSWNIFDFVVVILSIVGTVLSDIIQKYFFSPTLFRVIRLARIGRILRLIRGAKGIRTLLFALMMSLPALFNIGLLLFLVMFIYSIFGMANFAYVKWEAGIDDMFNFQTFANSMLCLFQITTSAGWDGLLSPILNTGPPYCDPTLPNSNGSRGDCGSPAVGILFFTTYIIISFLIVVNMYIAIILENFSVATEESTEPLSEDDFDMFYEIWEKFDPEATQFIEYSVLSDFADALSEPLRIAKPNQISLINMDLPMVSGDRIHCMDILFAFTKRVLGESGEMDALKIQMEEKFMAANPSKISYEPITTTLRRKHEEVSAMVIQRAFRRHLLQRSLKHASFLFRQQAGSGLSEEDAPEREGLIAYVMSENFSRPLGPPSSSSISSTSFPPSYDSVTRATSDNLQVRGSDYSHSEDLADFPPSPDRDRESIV
Description: Electrophysiological assays were conducted to profile five compounds for activities on the ion channel target using the QPatch HT electrophysiological platform.
CYL6004QP2DR Nav1.5 Human Sodium Ion Channel Cell Based Automated Patch Clamp Assay. Cells were held at −120 mV for 100 ms, stepped to −130 mV for 100 ms, and stepped back to −120 mV for 100 ms to measure the leak current. Na channels exist in a) resting or closed state at −120 mV, b) a transient open state that inactivates to c) inactivated state at −10 mV. Na current inhibition within 1-2 ms of channel opening at −10 mV is open channel inhibition (pulse 1). […] Pulse 1 and 2 are used to investigate drug binding to the open state and inactivated state of the Na channels, respectively. Each concentration of compound was applied for 5 minutes.
Current amplitudes more than 200 pA at the control stage were analyzed. The amplitude of the current was calculated by measuring the difference between the peak inward current on stepping to −10 mV (i.e. peak of the current) and remaining current at the end of the step. The current was assessed in vehicle control conditions and then at the end of each five (5) minute compound application.

[2] = Tissue binding in CD-1 mouse brain homogenate (equilibrium dialysis); details: 2 μM
[3] = Metabolic stability in dog liver S9; assay type: in vitro ADME, Beagle dog; details: for half-life at 1 μM / microsomal CLint at 1 μM: pH 7.2
Description: Incubation Buffer (PBK): 50 mM potassium phosphate buffer was prepared from 1 M potassium phosphate buffer, pH 7.2. […] The dilution of […] was prepared by 90% methanol/10% DMSO, then 10 μM working solutions were prepared by diluting the 0.1 mM intermediates with 50 mM PBK. […] Prior to use, the stock solutions were brought to room temperature and thoroughly mixed. […] Cofactors Solutions: the mixture of cofactors solution was made at 10 mM of NADPH and 10 mM of UDPGA in PBK buffer.
The incubation was carried out in 96-well plates. The liver S9 working solutions were added to 96-well plates (80 μL/well) in duplicate. […] Reaction was initiated by adding cofactor mixture 10 μL/well. The plates were incubated at 37° C. in a water bath with shaking. […] The final organic solvent content in the incubation was ≤1%.
At specified time points, i.e., 5, 10, 20, 30 and 60 minutes, NCF60 (without adding NADPH (Nicotinamide-adenine dinucleotide phosphate, reduced form) and UDPGA (Uridine 5′-diphosphoglucuronic acid trisodium salt) replaced with PBK buffer reaction was stopped by adding three volumes of stop solution. The time zero (To) samples were prepared by adding three volumes of stop solution to liver S9 samples, followed by addition of test article or control, and cofactor mixture solution 10 μL/well.
Subsequently, 100 μL of supernatant.
Positive controls: 7-ethoxycoumarin and 7-hydroxycoumarin.

[4] = Preclinical PK after intraperitoneal dosing of COMPOUND D, COMPOUND B and viloxazine; assay type: in vivo, mouse; details: COMPOUND B IP 10.948 mg/kg; for concentration at 0.25 h / concentration at 0.5 h: read-out: Plasma concentration of COMPOUND B; for MRT last: read-out: MRT0-last, plasma COMPOUND B; for Tmax: read-out: Tmax, plasma COMPOUND B
[5] = Binding assays; details: 1.0E−05 M
Description: A study was conducted to test COMPOUND D and COMPOUND E in Binding and enzyme and uptake assays.
COMPOUND D and COMPOUND E were tested at 1.0E-05 M.
The results are expressed as a percent of control specific binding and as a percent inhibition of control specific binding
The IC50 values (concentration causing a half-maximal inhibition of control specific binding) and Hill coefficients (nH) were determined by non-linear regression analysis of the competition curves generated with mean replicate values using Hill equation curve fitting […]
where Y=specific binding, A=left asymptote of the curve, D=right asymptote of the curve, C=compound concentration, C50=IC50, and nH=slope factor. This analysis was performed using software developed at Cerep (Hill software) and validated by comparison with data generated by the commercial software SigmaPlot® 4.0 for Windows® (© 1997 by SPSS Inc.).
The inhibition constants (Ki) were calculated using the Cheng Prusoff equation where L=concentration of radioligand in the assay, and KD=affinity of the radioligand for the receptor. A scatchard plot is used to determine the KD.
In Vitro Pharmacology. Results showing an inhibition (or stimulation for assays run in basal conditions) higher than […] were considered to represent significant effects of the test compounds. Results showing an inhibition (or stimulation) between 25% and 50% are indicative of weak to moderate effects. Results showing an inhibition (or stimulation) lower than […] were not considered significant and mostly attributable to variability of the signal around the control level.

[6] = Pulse 1 (open state), read-out: Estimated IC50 (Pulse 1)
[7] = Pulse 2 (inactivated state), read-out: Estimated IC50 (Pulse 2)
[8] = mouse brain homogenate, 4 hr dialysis (COMPOUND A 1 hr)
[9] = dog liver S9, 1 μM, NCF60 (no cofactors, 60 min)
[10] = mouse, plasma, ip, 10.948 mg/kg, individual mice
[11] = mouse, plasma, ip, 10.948 mg/kg, mean
[12] = 1 μM in Beagle Dog liver S9 fractions

CCOc1ccccc1OC[C@@H]1CN(C(=O)OC(OC(=O)[C@@H](N)C(C)C)C(C)C)CCO1 (stereo partly drawn) [COMPOUND B]
IC50 [1, 6]: > 100 µM
IC50 [1, 7]: 7.6 µM
stability in mouse brain homogenate ([2]; dialysis conditions): unstable
% Unbound Experimental ([2]; mouse brain homogenate, 4 hr): 15.5%
Analyte Peak area/IS Peak area CD (brain homogenate side) [2, 8]: 0.009 and 0.010
Analyte Peak area/IS Peak area CR (buffer side) [2, 8]: 0.001 and 0.002
Analyte Peak area/IS Peak area Co (time zero) ([2]; mouse brain homogenate, time zero): 0.057 and 0.059 and 0.064
half-life at 1 μM ([3]; Beagle, dog liver S9, 1 μM): 7.3 min
microsomal CLint at 1 μM ([3]; Beagle, dog liver S9, 1 μM, read-out: CLint(LS9)): 190 µL/min/mg
% Remaining ([3]; dog liver S9, 1 μM, 0 min): 100%
Analyte Peak area/IS Peak area Mean × 100 (n = 2) ([3]; dog liver S9, 1 μM, 0 min): 7.78
% Remaining ([3]; dog liver S9, 1 μM, 5 min): 2.9%
Analyte Peak area/IS Peak area Mean × 100 (n = 2) ([3]; dog liver S9, 1 μM, 5 min): 0.226
% Remaining ([3]; dog liver S9, 1 μM, 10 min): 4.0%
Analyte Peak area/IS Peak area Mean × 100 (n = 2) ([3]; dog liver S9, 1 μM, 10 min): 0.309
% Remaining ([3]; dog liver S9, 1 μM, 20 min): 2.1%
Analyte Peak area/IS Peak area Mean × 100 (n = 2) ([3]; dog liver S9, 1 μM, 20 min): 0.166
% Remaining ([3]; dog liver S9, 1 μM, 30 min): 0.5%
Analyte Peak area/IS Peak area Mean × 100 (n = 2) ([3]; dog liver S9, 1 μM, 30 min): 0.035
% Remaining ([3]; dog liver S9, 1 μM, 60 min): 0.09% and 0.1%
Analyte Peak area/IS Peak area Mean × 100 (n = 2) ([3]; dog liver S9, 1 μM, 60 min): 0.007
% Remaining [3, 9]: 0.0%
Analyte Peak area/IS Peak area Mean × 100 (n = 2) [3, 9]: 0.000
Plasma concentration of COMPOUND B ([4]; 0.250 h, individual mice, 10.948 mg/kg): BQL and 17.7 ng/mL
Plasma concentration of COMPOUND B ([4]; 0.500 h, individual mice, 10.948 mg/kg): 4.88 ng/mL and 8.44 ng/mL
Plasma concentration of COMPOUND B ([4]; 1.00 h, individual mice): BQL
Plasma concentration of COMPOUND B ([4]; 2.00 h, individual mice): BQL
Plasma concentration of COMPOUND B ([4]; 4.00 h, individual mice): BQL
Plasma concentration of Viloxazine ([4]; 4.00 h, individual mice, 10.948 mg/kg): BQL
Plasma concentration of COMPOUND B ([4]; 8.00 h, individual mice): BQL
Plasma concentration of Viloxazine ([4]; 8.00 h, individual mice, 10.948 mg/kg): BQL
Plasma concentration of COMPOUND B ([4]; 24.0 h, individual mice): BQL
Plasma concentration of Viloxazine ([4]; 24.0 h, individual mice): BQL
Tlast, plasma COMPOUND B ([4]; individual mice): 0.500 h
AUC0-last, plasma COMPOUND B ([4]; individual mice, 10.948 mg/kg): 6.48 ng·h/mL and 1.22 ng·h/mL and 5.34 ng·h/mL
Cmax, plasma COMPOUND B ([4]; individual mice, 10.948 mg/kg): 25.4 ng/mL and 4.88 ng/mL and 17.7 ng/mL
MRT0-last, plasma COMPOUND B ([4]; individual mice, 10.948 mg/kg): 30 min and 18.8 min
Tmax, plasma COMPOUND B ([4]; individual mice, 10.948 mg/kg): 30 min and 15 min
Tlast, plasma COMPOUND B ([4]; mean): 0.500 h
concentration at 0.25 h ([4]; mouse, plasma, ip, 10.948 mg/kg, 0.250 h, individual mice): 25.4 ng/mL
concentration at 0.25 h ([4]; mouse, plasma, ip, 10.948 mg/kg, 0.250 h, mean): 21.6 ng/mL
concentration at 0.5 h ([4]; mouse, plasma, ip, 10.948 mg/kg, 0.500 h, individual mice): 5.75 ng/mL
concentration at 0.5 h ([4]; mouse, plasma, ip, 10.948 mg/kg, 0.500 h, mean): 6.36 ng/mL
MRT last [4, 10]: 17.9 min
Tmax [4, 10]: 15 min
AUC(0-t) ([4]; mouse, plasma, ip, 10.948 mg/kg, mean, read-out: AUC0-last, plasma COMPOUND B): 4.35 ng·h/mL
Cmax ([4]; mouse, plasma, ip, 10.948 mg/kg, mean, read-out: Cmax, plasma COMPOUND B): 16 ng/mL
MRT last [4, 11]: 22.3 min
Tmax [4, 11]: 20 min

CCOc1ccccc1OCC1CN(C(=O)OC(OC(=O)[C@@H](N)C(C)C)C(C)C)CCO1 (stereo partly drawn) [COMPOUND E]
IC50 [1, 6]: 92.6 µM
IC50 [1, 7]: 5.7 µM
% Remaining at 60 min [3, 12]: 0.25%
half-life at 1 μM [3, 12]: 8.3 min
microsomal CLint at 1 μM ([3]; 1 μM in Beagle Dog liver S9 fractions, read-out: CLint(mic.)): 167 µL/min/mg
inhibition, 5-HT2B(h) (agonist radioligand) [5]: 80.2%
inhibition, 5-HT2C(h) (agonist radioligand) [5]: 54.1%
inhibition, Ca^2+ channel (L, diltiazem site) (benzothiazepines) (antagonist radioligand) [5]: 78.9%
inhibition, Ca^2+ channel (L, verapamil site) (phenylalkylamine) (antagonist radioligand) [5]: 50.7%
inhibition, MT3 (ML2) (agonist radioligand) [5]: 51.1%
inhibition, Na^+ channel (site 2) (antagonist radioligand) [5]: 84.5%
